In US20220105206A1, “SENSITIVITY ADVANCES IN ULTRASOUND SWITCHABLE FLUORESCENCE SYSTEMS AND TECHNIQUES” (Board of Regents, The University of Texas System, priority 2020, published 2022):

Legend:
[1] = literature value; cited from earlier work
[2] = Excitation and emission spectra of LNPs (Example 5); type: physicochemical; conditions: 530 nm excitation, 25° C.
Procedure: The hydrodynamic sizes of liposomes were measured with the DLS particle analyzer (NanoBrook 90PlusPALS, Brookhaven Instruments, USA). The incident angle of the 659 nm laser was 90 degrees. Samples were diluted with DI water until the count rate reaches 300-700 kcps and the temperature was set at 25° C. The excitation and emission spectra of LNPs were characterized via a spectrometer (Fluoromax-Plus-C, Horiba, Japan) using a 300 μL quartz cuvette (Hellma, Germany) with stir at 25° C. The excitation spectrum was scanned from 650-810 nm with an 830 nm LP emission filter and an emission recording wavelength at 850 nm. The emission spectrum was acquired using a 530 nm excitation light with a 550 nm LP emission filter (Semrock, USA) and recorded from 650-850 nm.

[3] = cited from earlier work

For `CC1(C)C(/C=C/C=C/C=C/C=C2\N(CCCCS(=O)(=O)O)c3ccc4ccccc4c3C2(C)C)=[N+](CCCCS(=O)(=O)[O-])c2ccc3ccccc3c21` [ICG, indocyanine green], the emission wavelength [1] is given as “around 810 nm”, the maximum absorption wavelength [1] is given as “around 785 nm” and the emission peak [2] is given as 809 nm. The “degradation of aqueous solutions” value ([3]; DI water and buffered saline) was “degraded relatively quickly by day 20” and the plasma half-life [3] was 2 to 4 min.
